Laboratory results: patent publication US6221670A, “Methods to identify β-amyloid reducing agents” (Scios Inc., priority 1997, dated 2001)
Where a SMILES comes first, the peptide text is derived from it. The star is where a group is joined. Cbz = O=C(OCc1ccccc1)*

Legend:
[1] = toxicity in transgenic mouse hippocampal organotypic slice culture by visual inspection; type: cell-based, mice transgenic for β-APP751; conditions: 25 μM to 400 μM, not toxic until this concentration, read-out: concentration at which toxicity became apparent by visual inspection
Experimental: Assessment of β-amyloid inhibitor activity and toxicity. Cultures are observed visually approximately every other day. Prior to the commencement of compound testing, on day 18 in culture, a three day test period was initiated in which media was conditioned by the untreated cultures. This media was collected and assayed for β-amyloid 1-40 and 1-42 levels using sensitive ELISAs. Organotypic cultures were then washed with media twice, and incubated for a further 3 day conditioning period in media supplemented with 25 μM to 400 μM MDL 28170, a protease inhibitor shown to inhibit total β-amyloid production in cell culture with an IC50 of 100 μM. MDL 28170 was applied from 100×stock solutions prepared in DMSO. Control culture received only DMSO. After conditioned media was collected at […], organotypic cultures were washed with serum free media twice and incubated for an additional 24 hours in serum free media in the continued presence of MDL 28170. This conditioned media was assayed for lactate dehydrogenase (LDH) activity. LDH is a ubiquitous cytosolic enzyme released into conditioned media only by unhealthy cells and is an index of viability and toxicity. High levels of LDH activity in serum require measurements to be made in serum free conditioned media. […]

[2] = test system: total β-amyloid production; conditions: cited from earlier work
[3] = toxicity in transgenic mouse hippocampal organotypic slice culture by LDH assay of serum free conditioned media; type: cell-based, mice transgenic for β-APP751; conditions: 25 μM to 400 μM, 3 days, then additional 24 hours in serum free media, not toxic until this concentration, read-out: concentration at which toxicity became apparent by LDH assay
Experimental: Detailed description of FIG. 4. Hippocampal organotypic slice cultures were prepared from mice transgenic for β-APP751. On day 21 in vitro, organotypic cultures were washed with media twice, and duplicate wells were incubated for a 3-day conditioning period in media supplemented with 25 μM to 400 μM MDL 28170, a protease inhibitor shown to inhibit total β-amyloid production in cell culture with an IC50 of 100 μM. MDL 28170 was applied from 100×stock solutions prepared in DMSO. Control culture received only DMSO. Conditioned media was collected at day 24 and assayed in duplicate for β-amyloid 1-40 using a sandwich ELISA. Organotypic cultures were washed with serum free media twice and incubated for an additional 24 hours in serum free media in the continued presence of MDL 28170. This conditioned media was assayed for lactate dehydrogenase (LDH) activity. LDH is a ubiquitous cytosolic enzyme released into conditioned media only by unhealthy cells and is an index of viability and toxicity. High levels of LDH activity in serum require measurements to be made in serum free conditioned media. Data points shown were calculated by first taking the mean of duplicate ELISA values for each well, and then calculating the mean of the values for the duplicate treatment wells.
Assessment of β-amyloid inhibitor activity and toxicity. Cultures are observed visually approximately every other day. […]

β-amyloid 1-40 = β-amyloid 1-40 secretion by transgenic mouse hippocampal organotypic slice culture (sandwich ELISA); type: cell-based; conditions: 72 h; 25 μM to 400 μM, 3-day conditioning period, FIG. 4; read-out: IC50 for β-amyloid production by transgenic mouse hippocampal organotypic slice culture
Experimental: Preparation of cultures. Ten day old mouse pups transgenic for the 751 amino acid isoform of human β-amyloid precursor protein (β-APP),programmed for neural expression by the neuron specific enolase promoter were used as tissue source for hippocampal organotypic slice cultures. Cultures were prepared as for rat brain slice organotypic cultures described in Example 1.
Preperation of cultures. Hippocampal organotypic slice cultures were prepared as described in example 2, from 10 day old mice transgenic for the 751 amino acid isoform of human β-amyloid precursor protein (β-APP), programmed for neural expression by the neuron specific enolase promoter and maintained in culture for 10 days.
Preparation of cultures. Hippocampal organotypic slice cultures are prepared from 10 day old mice transgenic for the 751 amino acid isoform of human β-amyloid precursor protein (β-APP), programmed for neural expression by the neuron specific enolase promoter as described in Example 2, and maintained in culture for 6 weeks.
Detailed description of FIG. 4. Hippocampal organotypic slice cultures were prepared from mice transgenic for β-APP751. […] Data points shown were calculated by first taking the mean of duplicate ELISA values for each well, and then calculating the mean of the values for the duplicate treatment wells. […]

CC(C)[C@H](NC(=O)OCc1ccccc1)C(=O)N[C@H](C=O)Cc1ccccc1 [MDL 28170] (Cbz-Val-Phe-aldehyde)
MCC [1]: 400 µM
IC50 ([2]; cell culture (monotypic cells), previously shown, read-out: IC50 for inhibition of total β-amyloid production in cell culture): 100 µM
reversibility of MDL activity on cultured monotypic cells ([2]; cultured monotypic cells): reversible
MCC [3]: 400 µM
IC50 (β-amyloid 1-40): 100 µM
